Assay: Evans Blue dye penetration into brain after confined swim stress
Assay type: in vivo
Conditions: FIG. 6A
Text: The above results were confirmed in animal experiments.

## Cc1cc(-c2ccc(/N=N/c3ccc4c(S(=O)(=O)O)cc(S(=O)(=O)O)c(N)c4c3O)c(C)c2)ccc1/N=N/c1ccc2c(S(=O)(=O)O)cc(S(=O)(=O)O)c(N)c2c1O [Evans Blue]
Nonstressed control mice
  dye penetration into the brain: very low levels
Stressed mice
  dye penetration into the brain: a large amount of the dye penetrates the brain
